Results published in US8501794B2, “Compounds as cannabinoid receptor ligands” (priority 2007, dated 2013).

Columns and labels:
human CB2 receptors = target: T1, human CB2 receptors (Homo sapiens, UniProt P34972); assay: human CB2 radioligand binding assay ([3H]CP-55,940 competition)
T1 construct: expressed in transfected cells; host or cells: HEK293

rat CB2 [1] = target: T2, rat CB2 (Rattus norvegicus, UniProt Q9QZN9); assay: rat CB2 radioligand binding assay ([3H]CP-55,940 competition); set-up: expressed in transfected cells; host or cells: HEK293
T2 sequence (Q9QZN9 1-360): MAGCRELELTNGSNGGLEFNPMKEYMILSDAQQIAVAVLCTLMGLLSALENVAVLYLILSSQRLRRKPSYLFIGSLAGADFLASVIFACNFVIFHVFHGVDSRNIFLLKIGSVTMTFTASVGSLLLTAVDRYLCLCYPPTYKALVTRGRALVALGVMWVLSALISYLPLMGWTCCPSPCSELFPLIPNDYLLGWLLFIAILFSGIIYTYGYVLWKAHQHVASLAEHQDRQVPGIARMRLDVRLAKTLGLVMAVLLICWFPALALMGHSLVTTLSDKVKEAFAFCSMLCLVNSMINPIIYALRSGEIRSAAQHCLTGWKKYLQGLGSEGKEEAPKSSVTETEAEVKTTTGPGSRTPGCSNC

rat CB2 [2] = target: T2, rat CB2; assay: rat CB2 cyclase functional assay (HitHunter cAMP, HEK cells); format: cell-based; set-up: expressed in transfected cells; host or cells: HEK; settings: forskolin 18 μM

T1 sequence (P34972 whole entry): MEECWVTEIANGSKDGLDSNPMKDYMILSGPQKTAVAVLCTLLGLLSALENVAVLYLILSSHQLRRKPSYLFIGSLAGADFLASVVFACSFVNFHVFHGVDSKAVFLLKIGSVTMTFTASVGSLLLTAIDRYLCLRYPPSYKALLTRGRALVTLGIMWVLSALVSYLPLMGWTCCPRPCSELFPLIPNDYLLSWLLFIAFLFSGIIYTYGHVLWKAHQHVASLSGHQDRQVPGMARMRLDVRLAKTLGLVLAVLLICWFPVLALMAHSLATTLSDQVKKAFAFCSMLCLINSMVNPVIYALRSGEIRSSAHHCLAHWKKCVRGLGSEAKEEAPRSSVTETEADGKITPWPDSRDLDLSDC

Row | Compound | Ki (human CB2 receptors) [nM] | Ki (rat CB2 [1]) [nM] | EC50 (rat CB2 [2]) [nM]
1 | COc1ccc(C(F)(F)F)cc1C(=O)/N=c1\sn(C(C)(C)C)cc1CCCC(C)(C)O [Example 81, N-[(5Z)-2-tert-butyl-4-(4-hydroxy-4-methylpentyl)isothiazol-5(2H)-ylidene]-2-methoxy-5-(trifluoromethyl)benzamide] | 45 | 2.6 | 0.061
2 | COc1ccc(Cl)cc1C(=O)/N=c1\sn(C(C)(C)C)cc1CCC(C)=O [Example 84, N-[(5Z)-2-tert-butyl-4-(3-oxobutyl)isothiazol-5(2H)-ylidene]-5-chloro-2-methoxybenzamide] | 42 | 2.7 | 0.88
3 | CCCCc1cn(C(C)(C)C)s/c1=N\C(=O)c1cc(Cl)ccc1OCCF [Example 139, N-[(5Z)-4-butyl-2-tert-butylisothiazol-5(2H)-ylidene]-5-chloro-2-(2-fluoroethoxy)benzamide] | 5.5 | 2 | 0.059
4 | COc1ccc(Cl)cc1C(=O)/N=c1\sn(C(C)(C)C)cc1CCCC(C)=O [Example 75, N-[(5Z)-2-tert-butyl-4-(4-oxopentyl)isothiazol-5(2H)-ylidene]-5-chloro-2-methoxybenzamide] | 31 | 4 | 0.29
5 | CCCCc1cn(C(C)(C)C)s/c1=N\C(=O)[C@@]1(C)CC[C@@H](C(=O)N(C)C)C1(C)C [Example 223, (1S,3R)—N^1-[(5Z)-4-butyl-2-tert-butylisothiazol-5(2H)-ylidene]-N^3,N^3,1,2,2-pentamethylcyclopentane-1,3-dicarboxamide] | 92 | 62 | 5.8
6 | COc1ccc(Cl)cc1C(=O)/N=c1\sn(C(C)(C)C)cc1CCC1CCC1 [Example 36, N-[(5Z)-2-tert-butyl-4-(2-cyclobutylethyl)isothiazol-5(2H)-ylidene]-5-chloro-2-methoxybenzamide] | 1.3 | 0.16 | 0.91
7 | CCCCc1cn(C(C)(C)C)s/c1=N\C(=O)[C@]1(C)CC[C@H](C2=NCCO2)C1(C)C [Example 217, (1R,3S)—N-[(5Z)-4-butyl-2-tert-butylisothiazol-5(2H)-ylidene]-3-(4,5-dihydro-1,3-oxazol-2-yl)-1,2,2-trimethylcyclopentanecarboxamide] | 0.7 | 0.73 | 0.16
8 | CCCCc1cn(C(C)(C)C)s/c1=N\C(=O)c1cc(C(F)(F)F)ccc1OCC1CCCCN1C (stereo not drawn) [Example 196, N-[(5Z)-4-butyl-2-tert-butylisothiazol-5(2H)-ylidene]-2-[(1-methylpiperidin-2-yl)methoxy]-5-(trifluoromethyl)benzamide] | 18 | 28.8 | 2.4
9 | CCCCc1cn(C(C)(C)C)s/c1=N\C(=O)[C@]1(C)CC[C@H](C(=O)OCC)C1(C)C [Example 175, Ethyl (1S,3R)-3-({[(5Z)-4-butyl-2-tert-butylisothiazol-5(2H)-ylidene]amino}carbonyl)-2,2,3-trimethylcyclopentanecarboxylate] | 3.8 | 1.5 | 0.54
10 | CCCCc1cn(C(C)(C)C)s/c1=N\S(=O)(=O)c1cccc2ccccc12 [Example 116, N-[(5Z)-4-butyl-2-tert-butylisothiazol-5(2H)-ylidene]naphthalene-1-sulfonamide] | 50 | 45 | 2.4
11 | CCCCc1cn(C(C)(C)C)s/c1=N\C(=O)c1cc(C(C)=O)ccc1OC [Example 64, 5-acetyl-N-[(5Z)-4-butyl-2-tert-butylisothiazol-5(2H)-ylidene]-2-methoxybenzamide] | 14 | 0.63 | 0.05
12 | CCCCc1cn(C(C)(C)C)s/c1=N\S(=O)(=O)C1CCCCC1 [Example 118, N-[(5Z)-4-butyl-2-tert-butylisothiazol-5(2H)-ylidene]cyclohexanesulfonamide] | 43 | 119 | 5.1
13 | COc1ccc(Cl)cc1C(=O)/N=c1\sn(C(C)(C)C)cc1CCCC(C)(C)F [Example 83, N-[(5Z)-2-tert-butyl-4-(4-fluoro-4-methylpentyl)isothiazol-5(2H)-ylidene]-5-chloro-2-methoxybenzamide] | 12 | 0.79 | 0.073
14 | COc1ccc(Cl)cc1C(=O)/N=c1\sn(C(C)(C)C)cc1CCCC(C)(C)O [Example 80, N-[(5Z)-2-tert-butyl-4-(4-hydroxy-4-methylpentyl)isothiazol-5(2H)-ylidene]-5-chloro-2-methoxybenzamide] | 74 | 8.5 | 0.046
15 | CCCCc1cn(C(C)(C)C)s/c1=N\C(=O)c1cc(C(F)F)ccc1OC [Example 65, N-[(5Z)-4-butyl-2-tert-butylisothiazol-5(2H)-ylidene]-5-(difluoromethyl)-2-methoxybenzamide] | 9.3 | 1.6 | 0.052
16 | CCCCc1cn(C(C)(C)C)s/c1=N\C(=O)C12CC3CC(CC(C3)C1)C2 [Example 123, N-[(5Z)-4-butyl-2-tert-butylisothiazol-5(2H)-ylidene]adamantane-1-carboxamide] | 0.31 | 0.17 | 0.13
17 | CCCCc1cn(C(C)(C)C)s/c1=N\C(=O)NC1CCC(C)CC1 (stereo not drawn) [Example 191, N-[(5Z)-4-butyl-2-tert-butylisothiazol-5(2H)-ylidene]-N′-(4-methylcyclohexyl)urea] | 15 | 1.8 | 0.51
18 | COc1ccc(Cl)cc1C(=O)/N=c1\sn(C(C)(C)C)cc1Cc1cscn1 [Example 52, N-[(5Z)-2-tert-butyl-4-(1,3-thiazol-4-ylmethyl)isothiazol-5(2H)-ylidene]-5-chloro-2-methoxybenzamide] | 43 | 4.8 | 0.15
19 | CCCCc1cn(C(C)(C)C)s/c1=N\C(=O)c1cc(Cl)ccc1OCC(N)=O [Example 140, 2-(2-amino-2-oxoethoxy)-N-[(5Z)-4-butyl-2-tert-butylisothiazol-5(2H)-ylidene]-5-chlorobenzamide] | 11 | 3.9 | 0.15
20 | CCCCc1cn(C(C)(C)C)s/c1=N\C(=O)C1(C)CCC(C(=O)N(C)C)C1(C)C (stereo not drawn) [Example 99, N^1-[(5Z)-4-butyl-2-tert-butylisothiazol-5(2H)-ylidene]-N^3,N^3,1,2,2-pentamethylcyclopentane-1,3-dicarboxamide] | 56 | 42 | 4.8
21 | CCCCc1cn(C(C)(C)C)s/c1=N\C(=O)c1cc(C=O)ccc1OC [Example 56, N-[(5Z)-4-butyl-2-tert-butylisothiazol-5(2H)-ylidene]-5-formyl-2-methoxybenzamide] | 11 | 1.2 | 0.076
22 | CCCCc1cn(C(C)(C)C)s/c1=N\C(=O)c1cc(F)ccc1OC [Example 42, N-[(5Z)-4-butyl-2-tert-butylisothiazol-5(2H)-ylidene]-5-fluoro-2-methoxybenzamide] | 24 | 2.3 | 0.31
23 | CCCCc1cn(C(C)(C)CF)s/c1=N\C(=O)c1cc(Cl)ccc1OC [Example 154, N-[(5Z)-4-butyl-2-(2-fluoro-1,1-dimethylethyl)isothiazol-5(2H)-ylidene]-5-chloro-2-methoxybenzamide] | 5.7 | 0.32 | 0.065
